Measurements: patent publication US11213516B2, “Intravaginally applicable devices comprising antiviral compounds” (AICURIS ANTI-INFECTIVE CURES GMBH, priority 2017, dated 2022)
Where “and” joins values, the source holds several entries; their conditions need not be identical. Equal entries are not always repeated. Marks after values point to notes of the source that are not given here.

How the values were obtained:
[1] = Plasma concentration after intravaginal administration of vaginal ring; format: in vivo, Cynomolgus monkeys; conditions: for Plasma concentration of Pritelivir free base: individual animals; for Plasma concentration of Pritelivir free base, Mean: group mean
Experimental: (§1) The study was performed in four single dose phases with 28-day sampling period after Phases 1 and 2 (7-day washout period between doses). Vaginal rings were investigated for Pritelivir free base and Pritelivir mesylate salt at two dose levels per formulation. The test items were applied as vaginal ring in Phases 1 and 2 to female monkeys. The study design is below in the Table 3.
Venous blood samples were taken from all animals at the following times in relation to dosing.
• Blood sample site Femoral site • Blood volume 1.0 mL • Anticoagulant For phase 1 samples, Day 1-3 only, blood was sampled into standard HLS vials containing lithium heparin and 20 μL aqueous phosphoric acid (3.5 molar). Thereafter, blood was collected into tubes containing lithium heparin only. Plasma was obtained from all samples by centrifugation. Samples were appropriately labeled and stored deep frozen (−20° C. or below) until analysis • Total no. of blood samples 350 Vaginal Fluid Sampling
(§2) After suitable dilution, plasma and vaginal samples were analyzed on UPLC system Waters Acquity UPLC-HSS PFP column with 1.8 μm particles (100×2.1 mm) by gradient elution using 0.1% formic acid and methanol containing 0.1% formic acid. For detection, a time-of-flight mass spectrometer (Xevo GS-2 QTOF, Waters) was used operating in positive ionization mode (MSe analysis). The samples were analyzed for their content of Pritelivir free base.
The study was designed to obtain information on the time-course of unchanged test compound concentrations in plasma and vaginal fluid/tissue, following single intravaginal administration of rings to female Cynomolgus monkeys. Objectives of this study were to determine the safety and tolerance of Pritelivir loaded rings, as well as systemic and local exposure (plasma, vaginal fluid and vaginal and vulval tissue, respectively). Local exposures were compared with in vitro efficacy data of Pritelivir to get an idea on initial pharmacokinetic/pharmacodynamic (PK/PD) parameters for vaginal rings, i.e. to assess the potential ability of a Pritelivir loaded ring to suppress viral replication in the target tissue. Table 9 gives an overview on the EC50 values of Pritelivir on HSV-1 and HSV-2 Data source: Field, H. J., et al., Baseline sensitivity of HSV-1 and HSV-2 clinical isolates and defined acyclovir-resistant strains to the helicase-primase inhibitor pritelivir. Antiviral Res, 2013. 100(2): p. 297-9. EC50=50% effective concentration.

[2] = Vulval tissue (biopsy) concentration after intravaginal administration of vaginal ring; format: in vivo, Cynomolgus monkeys; conditions: ring 40 mg free base; Phase 1; Day 28; per animal; biopsy weight estimated
Experimental: as §1
Vulval and vaginal biopsies were taken from all animals at the following times in relation to dosing.
For the sampling biopsies were taken with a suitable biopsy instrument. Biopsy samples were snap frozen on dry ice following collection and stored deep frozen (−20° C. or below) until analysis.
as §2
Vaginal and vulval biopsies were taken 28 Days after administration of intravaginal rings. As biopsies were not weighed prior extraction, weights were estimated based on data from similar investigations using the same settings for biopsies. From this study minimum, maximum, and mean biopsy weight was used for the calculation. These biopsy weights ranged from 0.7 to 6.3 mg, mean 2.95 mg. For all calculations it was assumed that 1 kg tissue is equal to 1 L water.

[3] = ring 40 mg free base, Phase 1 Group 1, 2 d
[4] = ring 40 mg free base, Phase 1 Group 1, 3 d
[5] = ring 240 mg free base, Phase 2 Group 1, 2 d
[6] = ring 240 mg free base, Phase 2 Group 1, 3 d
[7] = ring 240 mg free base, Phase 2 Group 1, 4 d
[8] = ring 240 mg free base, Phase 2 Group 1, 7 d
[9] = ring 240 mg free base, Phase 2 Group 1, 10 d
[10] = ring 240 mg free base, Phase 2 Group 1, 14 d
[11] = ring 240 mg free base, Phase 2 Group 1, 17 d
[12] = ring 240 mg free base, Phase 2 Group 1, 21 d
[13] = ring 240 mg free base, Phase 2 Group 1, 24 d
[14] = ring 240 mg free base, Phase 2 Group 1, 28 d

Compound: Cc1nc(N(C)C(=O)Cc2ccc(-c3ccccn3)cc2)sc1S(N)(=O)=O [Pritelivir free base]
- Plasma concentration of Pritelivir free base ([1]; ring 40 mg free base, Phase 1 Group 1, 0.0833 d): 6.03 ^ μg/L and 4.53 ^ μg/L
- Plasma concentration of Pritelivir free base ([1]; ring 40 mg free base, Phase 1 Group 1, 0.167 d): 6.90 ^ μg/L and 7.56 ^ μg/L
- Plasma concentration of Pritelivir free base ([1]; ring 40 mg free base, Phase 1 Group 1, 0.333 d): 8.54 ^ μg/L and 10.9 ^ μg/L and 3.97 ^ μg/L
- Plasma concentration of Pritelivir free base, Mean [1, 3]: 10.2 ^ μg/L
- Plasma concentration of Pritelivir free base [1, 3]: 4.07 ^ μg/L and 11.6 ^ μg/L and 18.3 ^ μg/L and 6.75 ^ μg/L
- Plasma concentration of Pritelivir free base, Mean [1, 4]: 9.20 ^ μg/L
- Plasma concentration of Pritelivir free base [1, 4]: 4.80 ^ μg/L and 7.29 ^ μg/L and 18.4 ^ μg/L and 6.30 ^ μg/L
- Plasma concentration of Pritelivir free base ([1]; ring 40 mg free base, Phase 1 Group 1, 4 d): 3.41 ^a μg/L and 5.30 ^ μg/L and 3.51 ^a μg/L
- Plasma concentration of Pritelivir free base ([1]; ring 40 mg free base, Phase 1 Group 1, 7 d): 3.22 ^a μg/L and 3.86 ^a μg/L and 4.00 ^ μg/L
- Plasma concentration of Pritelivir free base ([1]; ring 40 mg free base, Phase 1 Group 1, 10 d): 3.02 ^a μg/L and 3.74 ^a μg/L and 2.75 ^a μg/L
- Plasma concentration of Pritelivir free base ([1]; ring 40 mg free base, Phase 1 Group 1, 14 d): 2.83 ^a μg/L and 4.32 ^ μg/L and 3.29 ^a μg/L
- Plasma concentration of Pritelivir free base ([1]; ring 40 mg free base, Phase 1 Group 1, 17 d): 4.08 ^ μg/L and 3.48 ^a μg/L and 2.59 ^a μg/L
- Plasma concentration of Pritelivir free base ([1]; ring 40 mg free base, Phase 1 Group 1, 21 d): 3.08 ^a μg/L and 2.67 ^a μg/L
- Plasma concentration of Pritelivir free base ([1]; ring 40 mg free base, Phase 1 Group 1, 24 d): 2.77 ^a μg/L
- Plasma concentration of Pritelivir free base ([1]; ring 40 mg free base, Phase 1 Group 1, 28 d): 2.76 ^a μg/L and 3.00 ^a μg/L
- Plasma concentration of Pritelivir free base ([1]; ring 240 mg free base, Phase 2 Group 1, 0.0417 d): 2.96 ^a μg/L
- Plasma concentration of Pritelivir free base ([1]; ring 240 mg free base, Phase 2 Group 1, 0.0833 d): 2.95 ^a μg/L
- Plasma concentration of Pritelivir free base ([1]; ring 240 mg free base, Phase 2 Group 1, 0.167 d): 2.82 ^a μg/L and 8.45 μg/L and 4.56 μg/L and 2.49 ^a μg/L
- Plasma concentration of Pritelivir free base ([1]; ring 240 mg free base, Phase 2 Group 1, 0.333 d): 3.78 ^a μg/L and 10.1 μg/L and 5.80 μg/L and 3.79 ^a μg/L
- Plasma concentration of Pritelivir free base, Mean [1, 5]: 14.3 ^ μg/L
- Plasma concentration of Pritelivir free base [1, 5]: 10.1 ^ μg/L and 23.0 μg/L and 9.89 μg/L
- Plasma concentration of Pritelivir free base, Mean [1, 6]: 17.0 ^ μg/L
- Plasma concentration of Pritelivir free base [1, 6]: 15.6 ^ μg/L and 15.2 μg/L and 10.2 ^ μg/L
- Plasma concentration of Pritelivir free base, Mean [1, 7]: 17.0 ^ μg/L
- Plasma concentration of Pritelivir free base [1, 7]: 13.9 ^ μg/L and 16.1 μg/L and 12.2 ^ μg/L
- Plasma concentration of Pritelivir free base, Mean [1, 8]: 13.1 ^ μg/L
- Plasma concentration of Pritelivir free base [1, 8]: 11.8 ^ μg/L and 14.2 μg/L and 10.3 ^ μg/L
- Plasma concentration of Pritelivir free base, Mean [1, 9]: 8.80 ^ μg/L
- Plasma concentration of Pritelivir free base [1, 9]: 8.27 ^ μg/L and 9.04 μg/L and 8.43 ^ μg/L
- Plasma concentration of Pritelivir free base, Mean [1, 10]: 8.70 ^ μg/L
- Plasma concentration of Pritelivir free base [1, 10]: 6.33 ^ μg/L and 8.33 μg/L and 10.6 ^ μg/L
- Plasma concentration of Pritelivir free base, Mean [1, 11]: 8.67 ^ μg/L
- Plasma concentration of Pritelivir free base [1, 11]: 5.58 ^ μg/L and 9.84 μg/L and 8.41 ^ μg/L
- Plasma concentration of Pritelivir free base, Mean [1, 12]: 6.97 ^ μg/L
- Plasma concentration of Pritelivir free base [1, 12]: 6.02 ^ μg/L and 8.37 μg/L and 5.71 ^ μg/L
- Plasma concentration of Pritelivir free base, Mean [1, 13]: 8.97 ^ μg/L
- Plasma concentration of Pritelivir free base [1, 13]: 4.96 ^ μg/L and 11.3 μg/L and 9.86 ^ μg/L
- Plasma concentration of Pritelivir free base, Mean [1, 14]: 8.79 ^ μg/L
- Plasma concentration of Pritelivir free base [1, 14]: 5.57 ^ μg/L and 9.32 μg/L and 7.55 ^ μg/L
- Vulval tissue concentration of Pritelivir free base, Max [2]: <2.0 µg/g and 0.134 µg/g and 0.742 µg/g
- Vulval tissue concentration of Pritelivir free base, Mean [2]: <2.0 µg/g and 0.0318 µg/g and 0.176 µg/g
- Vulval tissue concentration of Pritelivir free base, Min [2]: <2.0 µg/g and 0.0149 µg/g and 0.0825 µg/g
